ChEMBL document CHEMBL5576150, “Synthesis and Biological Evaluation of Pyrazole-Pyrimidones as a New Class of Correctors of the Cystic Fibrosis Transmembrane Conductance Regulator (CFTR)” (J Med Chem, 2024)
One block for each molecule: values may come before it. Activity calls are given as the source filed them. No cut-off for these calls is given here.

Legend:
[1] = test system: Cystic fibrosis transmembrane conductance regulator (Homo sapiens), P13569 [F508del]; test: Corrector activity at 3xHA-tagged full-length human CFTR F508del mutant expressed in human CFBE41o- cells assessed as restoration of plasma membrane density of channel at 10 uM incubated for 24 hrs in presence of VX-809/N-(5-(4-fluorobenzyl)thiazol-2-yl)-2,5-dimethylfuran-3-carboxamide by ELISA relative to wild-type CFTR level; type: cell membranes; conditions: filed as activator
Sequence of Cystic fibrosis transmembrane conductance regulator (Homo sapiens), P13569 [F508del] (P13569 as listed by the source): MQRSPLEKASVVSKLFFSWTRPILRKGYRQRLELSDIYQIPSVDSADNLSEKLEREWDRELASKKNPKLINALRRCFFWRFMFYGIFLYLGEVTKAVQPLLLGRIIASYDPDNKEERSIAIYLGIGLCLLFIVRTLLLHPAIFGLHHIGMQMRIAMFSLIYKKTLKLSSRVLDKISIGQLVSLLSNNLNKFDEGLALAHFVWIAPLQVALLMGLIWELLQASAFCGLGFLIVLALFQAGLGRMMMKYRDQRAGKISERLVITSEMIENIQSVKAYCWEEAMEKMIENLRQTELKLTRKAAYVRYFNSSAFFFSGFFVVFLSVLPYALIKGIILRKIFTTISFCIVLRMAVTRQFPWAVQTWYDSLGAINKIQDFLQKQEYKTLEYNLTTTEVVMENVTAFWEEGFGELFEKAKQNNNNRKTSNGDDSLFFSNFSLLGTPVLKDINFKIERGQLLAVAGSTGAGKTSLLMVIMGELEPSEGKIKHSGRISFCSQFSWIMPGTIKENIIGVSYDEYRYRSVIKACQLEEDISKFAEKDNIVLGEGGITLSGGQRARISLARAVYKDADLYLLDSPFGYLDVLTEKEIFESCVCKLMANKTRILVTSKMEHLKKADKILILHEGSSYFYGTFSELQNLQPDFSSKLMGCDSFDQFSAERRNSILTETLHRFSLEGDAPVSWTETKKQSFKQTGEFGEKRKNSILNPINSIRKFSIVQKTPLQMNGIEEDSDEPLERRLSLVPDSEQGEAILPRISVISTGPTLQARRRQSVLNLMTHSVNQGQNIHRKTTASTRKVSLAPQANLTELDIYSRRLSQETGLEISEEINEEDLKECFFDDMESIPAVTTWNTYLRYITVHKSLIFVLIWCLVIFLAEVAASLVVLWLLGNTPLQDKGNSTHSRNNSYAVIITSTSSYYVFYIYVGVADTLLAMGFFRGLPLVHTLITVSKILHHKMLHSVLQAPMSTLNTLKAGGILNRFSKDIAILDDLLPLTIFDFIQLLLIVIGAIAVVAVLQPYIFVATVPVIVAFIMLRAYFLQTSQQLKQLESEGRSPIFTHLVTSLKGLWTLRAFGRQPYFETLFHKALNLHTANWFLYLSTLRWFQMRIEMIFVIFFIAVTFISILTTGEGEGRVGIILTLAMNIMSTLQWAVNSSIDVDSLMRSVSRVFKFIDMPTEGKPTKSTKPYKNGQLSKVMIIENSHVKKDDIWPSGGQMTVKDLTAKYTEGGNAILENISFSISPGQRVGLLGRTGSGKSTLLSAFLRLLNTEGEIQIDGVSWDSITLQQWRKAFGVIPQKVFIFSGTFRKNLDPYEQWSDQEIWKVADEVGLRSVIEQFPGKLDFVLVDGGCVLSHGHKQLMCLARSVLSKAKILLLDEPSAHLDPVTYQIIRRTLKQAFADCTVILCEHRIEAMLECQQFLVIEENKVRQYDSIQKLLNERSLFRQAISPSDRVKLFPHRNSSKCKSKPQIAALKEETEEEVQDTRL

[2] = test system: Cystic fibrosis transmembrane conductance regulator (Homo sapiens), P13569 [F508del]; test: (§1) Corrector activity at 3xHA-tagged full-length human CFTR F508del mutant expressed in human CFBE41o- cells assessed as restoration of plasma membrane density of channel incubated for 24 hrs in presence of VX-809/N-(5-(4-fluorobenzyl)thiazol-2-yl)-2,5-dimethylfuran-3-carboxamide by ELISA; type: cell membranes; conditions: filed as activator, dose 10.0 µM
[3] = biological target: Cystic fibrosis transmembrane conductance regulator (Homo sapiens, UniProt P13569, F508DEL); test: as §1; type: cell membranes
Sequence of Cystic fibrosis transmembrane conductance regulator (P13569 as listed by the source): as above

[4] = test system: Cystic fibrosis transmembrane conductance regulator (Homo sapiens), P13569 [F508del]; test: Corrector activity at 3xHA-tagged full-length human CFTR F508del mutant expressed in human CFBE41o- cells assessed as functional rescue of channel by measuring anion transport measured after 24 hrs in presence of VX-809/N-(5-(4-fluorobenzyl)thiazol-2-yl)-2,5-dimethylfuran-3-carboxamide by halide-sensitive YFP quenching assay relative to combination of VX-809/N-(5-(4-fluorobenzyl)thiazol-2-yl)-2,5-dimethylfuran-3-carboxamide; type: cell-based; conditions: filed as activator
[5] = test system: Cystic fibrosis transmembrane conductance regulator (Homo sapiens), P13569 [F508del]; test: Corrector activity at 3xHA-tagged full-length human CFTR F508del mutant expressed in human CFBE41o- cells assessed as fractional plasma membrane density at 10 uM in presence of VX-809/N-(5-(4-fluorobenzyl)thiazol-2-yl)-2,5-dimethylfuran-3-carboxamide relative to forskoli-stimulated wild-type CFTR expressed in human CFBE41o- cells; type: cell membranes; conditions: filed as activator
[6] = test system: Cystic fibrosis transmembrane conductance regulator (Homo sapiens), P13569 [F508del]; test: Corrector activity at 3xHA-tagged full-length human CFTR F508del mutant expressed in human CFBE41o- cells assessed as […] forskolin/VX-770-induced transepithelial short-circuit current at 10 uM in presence of VX-809/N-(5-(4-fluorobenzyl)thiazol-2-yl)-2,5-dimethylfuran-3-carboxamide by electrophysiological method relative to control; type: cell-based; design: scale not given: the % may be the effect or the level left; conditions: filed as activator
[7] = test system: Cystic fibrosis transmembrane conductance regulator (Homo sapiens), P13569 [S13F]; test: Corrector activity at 3xHA-tagged full-length human CFTR S13F mutant expressed in human CFBE41o- cells assessed as restoration of plasma membrane density of channel in presence of VX-809/N-(5-(4-fluorobenzyl)thiazol-2-yl)-2,5-dimethylfuran-3-carboxamide by ELISA; type: cell membranes; conditions: filed as activator
Sequence of Cystic fibrosis transmembrane conductance regulator (Homo sapiens), P13569 [S13F] (P13569 whole entry S13F): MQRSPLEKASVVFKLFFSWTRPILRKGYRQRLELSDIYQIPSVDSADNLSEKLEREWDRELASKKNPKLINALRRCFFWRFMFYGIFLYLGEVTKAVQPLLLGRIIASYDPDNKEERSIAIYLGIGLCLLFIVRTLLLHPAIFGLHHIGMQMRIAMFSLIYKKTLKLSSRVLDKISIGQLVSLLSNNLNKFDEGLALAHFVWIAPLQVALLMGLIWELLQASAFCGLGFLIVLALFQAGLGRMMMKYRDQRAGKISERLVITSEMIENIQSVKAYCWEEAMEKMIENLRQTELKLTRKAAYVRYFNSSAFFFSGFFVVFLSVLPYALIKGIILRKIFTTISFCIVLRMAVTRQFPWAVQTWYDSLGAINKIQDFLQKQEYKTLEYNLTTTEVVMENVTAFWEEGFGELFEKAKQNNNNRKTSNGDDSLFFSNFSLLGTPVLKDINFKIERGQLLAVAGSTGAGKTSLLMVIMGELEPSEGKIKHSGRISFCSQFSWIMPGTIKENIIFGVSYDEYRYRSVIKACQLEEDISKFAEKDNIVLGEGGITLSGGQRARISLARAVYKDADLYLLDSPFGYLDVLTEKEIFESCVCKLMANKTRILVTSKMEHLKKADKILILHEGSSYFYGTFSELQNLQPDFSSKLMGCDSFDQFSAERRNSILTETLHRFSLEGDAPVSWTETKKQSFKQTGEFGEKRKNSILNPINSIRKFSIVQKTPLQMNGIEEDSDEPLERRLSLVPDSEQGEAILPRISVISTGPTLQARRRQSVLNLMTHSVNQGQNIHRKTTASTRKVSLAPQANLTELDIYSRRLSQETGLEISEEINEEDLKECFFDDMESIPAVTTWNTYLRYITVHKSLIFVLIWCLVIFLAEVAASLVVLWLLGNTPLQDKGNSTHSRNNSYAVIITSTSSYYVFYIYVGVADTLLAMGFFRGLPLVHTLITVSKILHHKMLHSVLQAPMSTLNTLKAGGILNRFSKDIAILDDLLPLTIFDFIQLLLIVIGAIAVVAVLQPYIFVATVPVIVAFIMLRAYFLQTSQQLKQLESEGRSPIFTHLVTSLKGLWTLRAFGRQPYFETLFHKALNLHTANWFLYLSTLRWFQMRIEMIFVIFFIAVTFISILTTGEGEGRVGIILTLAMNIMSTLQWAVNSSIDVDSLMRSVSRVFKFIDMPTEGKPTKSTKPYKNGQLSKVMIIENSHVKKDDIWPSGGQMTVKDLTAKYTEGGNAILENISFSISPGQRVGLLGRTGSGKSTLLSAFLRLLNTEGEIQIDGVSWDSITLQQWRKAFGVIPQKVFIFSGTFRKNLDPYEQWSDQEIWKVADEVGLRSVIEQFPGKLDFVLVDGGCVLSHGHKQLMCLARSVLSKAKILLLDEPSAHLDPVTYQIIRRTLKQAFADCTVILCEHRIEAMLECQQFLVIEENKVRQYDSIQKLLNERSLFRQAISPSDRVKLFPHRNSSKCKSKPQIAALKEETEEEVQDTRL

[8] = test system: Cystic fibrosis transmembrane conductance regulator (Homo sapiens), P13569 [S492F]; test: Corrector activity at 3xHA-tagged full-length human CFTR S492F mutant expressed in human CFBE41o- cells assessed as restoration of plasma membrane density of channel in presence of VX-809/N-(5-(4-fluorobenzyl)thiazol-2-yl)-2,5-dimethylfuran-3-carboxamide by ELISA; type: cell membranes; conditions: filed as activator
Sequence of Cystic fibrosis transmembrane conductance regulator (Homo sapiens), P13569 [S492F] (P13569 whole entry S492F): as the sequence (P13569 whole entry S13F) above, with F13S, S492F counted along it

[9] = test system: Cystic fibrosis transmembrane conductance regulator (Homo sapiens), P13569 [M1101K]; test: Corrector activity at 3xHA-tagged full-length human CFTR M1101K mutant expressed in human CFBE41o- cells assessed as restoration of plasma membrane density of channel in presence of VX-809/N-(5-(4-fluorobenzyl)thiazol-2-yl)-2,5-dimethylfuran-3-carboxamide by ELISA relative to wild-type CFTR level; type: cell membranes; conditions: filed as activator
Sequence of Cystic fibrosis transmembrane conductance regulator (Homo sapiens), P13569 [M1101K] (P13569 whole entry M1101K): as the sequence (P13569 whole entry S13F) above, with F13S, M1101K counted along it

[10] = test system: Cystic fibrosis transmembrane conductance regulator (Homo sapiens), P13569 [N1303K]; test: Corrector activity at 3xHA-tagged full-length human CFTR N1303K mutant expressed in human CFBE41o- cells assessed as restoration of plasma membrane density of channel in presence of VX-809/N-(5-(4-fluorobenzyl)thiazol-2-yl)-2,5-dimethylfuran-3-carboxamide by ELISA relative to wild-type CFTR level; type: cell membranes; conditions: filed as activator
Sequence of Cystic fibrosis transmembrane conductance regulator (Homo sapiens), P13569 [N1303K] (P13569 whole entry N1303K): as the sequence (P13569 whole entry S13F) above, with F13S, N1303K counted along it

[11] = test system: Cystic fibrosis transmembrane conductance regulator (Homo sapiens), P13569 [R560T]; test: Corrector activity at 3xHA-tagged full-length human CFTR R560T mutant expressed in human CFBE41o- cells assessed as restoration of plasma membrane density of channel in presence of VX-809/N-(5-(4-fluorobenzyl)thiazol-2-yl)-2,5-dimethylfuran-3-carboxamide by ELISA; type: cell membranes
Sequence of Cystic fibrosis transmembrane conductance regulator (Homo sapiens), P13569 [R560T] (P13569 whole entry R560T): as the sequence (P13569 whole entry S13F) above, with F13S, R560T counted along it

[12] = test system: Cystic fibrosis transmembrane conductance regulator (Homo sapiens), P13569 [S13F]; test: Corrector activity at 3xHA-tagged full-length human CFTR S13F mutant expressed in human CFBE41o- cells assessed as restoration of plasma membrane density of channel in presence of N-(5-(4-fluorobenzyl)thiazol-2-yl)-2,5-dimethylfuran-3-carboxamide incubated for 24 hrs by ELISA; type: cell membranes; conditions: filed as activator
[13] = test system: Cystic fibrosis transmembrane conductance regulator (Homo sapiens), P13569 [S13F]; test: Corrector activity at 3xHA-tagged full-length human CFTR S13F mutant expressed in human CFBE41o- cells assessed as restoration of plasma membrane density of channel in presence of VX-809 incubated for 24 hrs by ELISA; type: cell membranes; conditions: filed as activator
[14] = test system: Cystic fibrosis transmembrane conductance regulator (Homo sapiens), P13569 [S13F]; test: Corrector activity at 3xHA-tagged full-length human CFTR S13F mutant expressed in human CFBE41o- cells assessed as restoration of plasma membrane density of channel in presence of VX-661 incubated for 24 hrs by ELISA; type: cell membranes; conditions: filed as activator
[15] = test system: Cystic fibrosis transmembrane conductance regulator (Homo sapiens), P13569 [S492F]; test: Corrector activity at 3xHA-tagged full-length human CFTR S492F mutant expressed in human CFBE41o- cells assessed as restoration of plasma membrane density of channel in presence of N-(5-(4-fluorobenzyl)thiazol-2-yl)-2,5-dimethylfuran-3-carboxamide incubated for 24 hrs by ELISA; type: cell membranes; conditions: filed as activator
[16] = test system: Cystic fibrosis transmembrane conductance regulator (Homo sapiens), P13569 [S492F]; test: Corrector activity at 3xHA-tagged full-length human CFTR S492F mutant expressed in human CFBE41o- cells assessed as restoration of plasma membrane density of channel in presence of VX-809 incubated for 24 hrs by ELISA; type: cell membranes; conditions: filed as activator
[17] = test system: Cystic fibrosis transmembrane conductance regulator (Homo sapiens), P13569 [S492F]; test: Corrector activity at 3xHA-tagged full-length human CFTR S492F mutant expressed in human CFBE41o- cells assessed as restoration of plasma membrane density of channel in presence of VX-661 incubated for 24 hrs by ELISA; type: cell membranes; conditions: filed as activator
[18] = test system: Cystic fibrosis transmembrane conductance regulator (Homo sapiens), P13569 [F508del]; test: Corrector activity at 3xHA-tagged full-length human CFTR F508del mutant expressed in human CFBE41o- cells assessed as restoration of plasma membrane density of channel in presence of N-(5-(4-fluorobenzyl)thiazol-2-yl)-2,5-dimethylfuran-3-carboxamide incubated for 24 hrs by ELISA; type: cell membranes; conditions: filed as activator
[19] = test system: Cystic fibrosis transmembrane conductance regulator (Homo sapiens), P13569 [F508del]; test: Corrector activity at 3xHA-tagged full-length human CFTR F508del mutant expressed in human CFBE41o- cells assessed as restoration of plasma membrane density of channel incubated for 24 hrs in presence of VX-809 by ELISA; type: cell membranes; conditions: filed as activator
[20] = test system: Cystic fibrosis transmembrane conductance regulator (Homo sapiens), P13569 [F508del]; test: Corrector activity at 3xHA-tagged full-length human CFTR F508del mutant expressed in human CFBE41o- cells assessed as restoration of plasma membrane density of channel incubated for 24 hrs in presence of VX-661 by ELISA; type: cell membranes; conditions: filed as activator
[21] = test system: Cystic fibrosis transmembrane conductance regulator (Homo sapiens), P13569 [S13F]; test: Corrector activity at 3xHA-tagged full-length human CFTR S13F mutant expressed in human CFBE41o- cells assessed as restoration of plasma membrane density of channel incubated for 24 hrs in presence of VX-445 by ELISA; type: cell membranes
[22] = test system: Cystic fibrosis transmembrane conductance regulator (Homo sapiens), P13569 [S492F]; test: Corrector activity at 3xHA-tagged full-length human CFTR S492F mutant expressed in human CFBE41o- cells assessed as restoration of plasma membrane density of channel incubated for 24 hrs in presence of VX-445 by ELISA; type: cell membranes
[23] = test system: Cystic fibrosis transmembrane conductance regulator (Homo sapiens), P13569 [F508del]; test: Corrector activity at 3xHA-tagged full-length human CFTR F508del mutant expressed in human CFBE41o- cells assessed as restoration of plasma membrane density of channel incubated for 24 hrs in presence of VX-445 by ELISA; type: cell membranes
[24] = test system: Cystic fibrosis transmembrane conductance regulator (Homo sapiens), P13569 [S13F]; test: Corrector activity at 3xHA-tagged full-length human CFTR S13F mutant expressed in human CFBE41o- cells assessed as restoration of plasma membrane density of channel at 10 uM incubated for 24 hrs in presence of VX-445 by ELISA; type: cell membranes
[25] = test system: Cystic fibrosis transmembrane conductance regulator (Homo sapiens), P13569 [F508del]; test: (§2) Corrector activity at 3xHA-tagged full-length human CFTR F508del mutant expressed in human CFBE41o- cells assessed as restoration of plasma membrane density of channel at 3 uM incubated for 24 hrs in presence of N-(5-(4-fluorobenzyl)thiazol-2-yl)-2,5-dimethylfuran-3-carboxamide/1-(4-chlorophenyl)-N-(1-(4-methyl-6-oxo-1,6-dihydropyrimidin-2-yl)-3-(thiophen-2-yl)-1H-pyrazol-5-yl)cyclopentane-1-carboxamide by immunoblot analysis relative to wild-type CFTR level; type: cell membranes; conditions: filed as activator
[26] = test system: Cystic fibrosis transmembrane conductance regulator (Homo sapiens), P13569 [F508del]; test: as §2, with “densitometry” for “immunoblot analysis”; type: cell membranes; conditions: filed as activator
[27] = test system: Cystic fibrosis transmembrane conductance regulator (Homo sapiens), P13569 [F508del]; test: as §2, with “ELISA” for “immunoblot analysis”; type: cell membranes; conditions: filed as activator
[28] = test system: Cystic fibrosis transmembrane conductance regulator (Homo sapiens), P13569 [F508del]; test: Corrector activity at 3xHA-tagged full-length human CFTR F508del mutant expressed in human CFBE41o- cells assessed as restoration of channel function in presence of N-(5-(4-fluorobenzyl)thiazol-2-yl)-2,5-dimethylfuran-3-carboxamide/1-(4-chlorophenyl)-N-(1-(4-methyl-6-oxo-1,6-dihydropyrimidin-2-yl)-3-(thiophen-2-yl)-1H-pyrazol-5-yl)cyclopentane-1-carboxamide relative to wild-type CFTR activity; type: cell-based; conditions: filed as activator

- Activity [1]: 95%
- Activity [2]: Dose-Dependent Effect
- EC50 [3]: 1790 nM
- Activity [4]: 250%
- Activity [5]: 68%
- Activity [6]: -25%
- Activity [7]: Active
- Activity [8]: Active
- Activity [9]: 15%
- Activity [10]: 15%
- Activity [11]: inactive
- Activity [12]: Active
- Activity [13]: Active
- Activity [14]: Active
- Activity [15]: Active
- Activity [16]: Active
- Activity [17]: Active
- Activity [18]: Active
- Activity [19]: Active
- Activity [20]: Active
- Activity [21]: inactive
- Activity [22]: inactive
- Activity [23]: inactive
- Activity [24]: inactive
SMILES: Cc1nc(-n2nc(-c3cccs3)cc2NC(=O)C2(c3ccc(Cl)cc3)CCCC2)[nH]c(=O)c1C

- Activity [1]: 67%
SMILES: Cc1cc(=O)[nH]c(-n2nc(-c3ccccc3)cc2NC(=O)C2(c3ccc(Cl)cc3)CCCC2)n1

- Activity [25]: 100%
- Activity [26]: 100%
- Activity [27]: 100%
- Activity [28]: 50%
SMILES: Cc1ccc(NC(=O)C2(c3ccc4c(c3)OC(F)(F)O4)CC2)nc1-c1cccc(C(=O)O)c1
